# Measurements reported in paper PMC6994673, “Metabolism of multiple glycosaminoglycans by Bacteroides thetaiotaomicron is orchestrated by a versatile core genetic locus” (Nature Communications, 2020).
# Target: T1, BT3349-S1_27^4S-sulf (Bacteroides thetaiotaomicron, UniProt Q8A2F6)
# T1 construct: gene BT_3349; pET28a, N- or C-terminal His6, E. coli; Talon and size exclusion; periplasmic, SpII signal peptide
# T1 sequence (Q8A2F6 13-508): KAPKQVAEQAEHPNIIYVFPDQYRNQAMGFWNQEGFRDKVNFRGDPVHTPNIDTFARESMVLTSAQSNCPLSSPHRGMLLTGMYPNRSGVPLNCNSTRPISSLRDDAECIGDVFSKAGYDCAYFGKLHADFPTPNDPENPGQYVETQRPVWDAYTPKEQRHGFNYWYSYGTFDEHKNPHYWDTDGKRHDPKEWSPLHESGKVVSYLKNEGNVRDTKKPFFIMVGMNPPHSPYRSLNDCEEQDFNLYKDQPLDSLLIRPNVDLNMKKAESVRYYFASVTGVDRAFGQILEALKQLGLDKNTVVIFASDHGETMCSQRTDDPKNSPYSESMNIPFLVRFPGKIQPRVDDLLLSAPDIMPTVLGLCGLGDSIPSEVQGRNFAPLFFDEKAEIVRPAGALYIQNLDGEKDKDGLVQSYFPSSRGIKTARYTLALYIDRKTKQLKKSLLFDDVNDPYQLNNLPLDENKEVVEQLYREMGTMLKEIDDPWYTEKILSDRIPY
# Assay: continuous linked assay with GH88, loss of absorbance at […] nm
# Type: biochemical
# Conditions: 50 mM MES pH 6.0 or Bis-Tris propane pH 6.5, 150 mM NaCl, 37 °C; kinetic parameters only in supplement, kind not told
smiles,measurement,value
"CC(=O)N[C@H]1C(O)O[C@H](CO)[C@H](OS(=O)(=O)O)[C@@H]1O[C@@H]1OC(C(=O)O)=C[C@H](O)[C@H]1O (stereo partly shown) [Δ4,5UA-GalNAc4S]",kinetic parameters,monitored via a continuous linked assay using BT3334^GH88 and UA-GalNAc4S as the substrate
